The source of these data is patent publication US20230183310A1, “Polypeptide Compounds and Use Thereof in the Prevention or Treatment of Diabetes or Diabetic Complications” (Shenzhen Turier Biotech Co., Ltd., priority 2020, published 2023).

*1 amine or outer side, *2 acyl side, *3 side chain or, on linkers, in order; H or OH if unused. Primed or numbered codes have the meaning given here. Where no end group is shown, it is not given here. Side-chain parts run from the residue outwards. [ ]: non-standard residue; d: D form. The star is where a group is joined. C20 diacid = O=C(O)CCCCCCCCCCCCCCCCCCC(=O)*; γGlu = O=C(O)[C@H](CCC(=O)[*:2])N[*:1]; PEG2′ = not defined here; Aib = CC(C)(N)C(=O)O

In assay [1] the test system is db/db diabetic mice. Briefly: Treatment of 12-week-old db/db diabetic mice: blood glucose, OGTT, ITT, ALT/AST, diabetic nephropathy indices. To be noted: for weekly blood glucose (hypoglycemic effect): FIG. 4A, blood glucose at normal levels at week 1; for weekly blood glucose (hypoglycemic effect) / improving oral glucose tolerance (OGTT) / improving insulin resistance (ITT) / ALT and AST in serum (hepatoprotective function): 120 μg/kg s.c. daily; for improving oral glucose tolerance (OGTT): FIG. 4B, week 4; for improving insulin resistance (ITT): FIG. 4C, week 5; for ALT and AST in serum (hepatoprotective function): FIG. 4D; for H&E staining of kidneys: glomerular adhesion, ameliorative and therapeutic effects: FIG. 5B; for H&E staining of kidneys: glomerular adhesion, ameliorative and therapeutic effects / PAS staining of kidneys: ameliorative effects on glomerular mesangial region / collagen content (Sirius red, FN and α-SMA staining of kidneys): after 8 weeks; for H&E staining of kidneys: glomerular adhesion, ameliorative and therapeutic effects / collagen content (Sirius red, FN and α-SMA staining of kidneys): compared to semaglutide, SAR425899 and MED C18-acid groups; for PAS staining of kidneys: ameliorative effects on glomerular mesangial region: FIG. 5C; for collagen content (Sirius red, FN and α-SMA staining of kidneys): FIGS. 5D to 5F. Format: in vivo. On the procedure: Normal mice born in the same litter; DC group: db/db mice control group). Blood glucose and body weight were measured on alternate days after daily administration of the medicament, and water intake and food intake were measured once a week. OGTT was measured at week 4, insulin tolerance (ITT) was measured at week 5, metabolism of mice was examined using mouse metabolic cages at weeks 6-7, and various serological and pathological indices were taken at week 8.
Type 2-diabetes mice were characterized by obesity, insulin resistance, hyperglycemia, dyslipidemia and hepatic fat vacuole-like degeneration.
After 6 weeks of medical treatment, the mice was collected for urine using metabolic cages, and the protein content in the urine was detected using relevant kits. After 7 weeks of medical treatment, the material was taken and blood was used to detect serological indicators such as blood creatinine and urea nitrogen.

The subject of another assay is C57BL/6J mice. Nature of the assay: Oral glucose tolerance (OGTT), repeated glucose loads followed to 24 h after one s.c. dose. It counts as in vivo. Conditions: 100 μg/kg subcutaneously; for long-acting hypoglycemic effects compared to semaglutide: four OGTT curves (0-22 h). On the procedure: Eight-week-old male C57BL/6J mice (Model Animal Research Center, Nanjing University) were randomly grouped according to similar blood glucose (assessed by blood samples obtained from the tail tip), with six mice in each group. […] The initial blood samples (fasted blood glucose levels) were obtained after about 4 h. Subsequently, an oral dose of glucose (2 g/kg) was administered and the animals were placed back in their holding cages (t=0). […] The oral dose of glucose was then repeated at 8 h of administration, 12 h of administration and […], and blood glucose changes were detected and followed until 24 hours. The data were processed using the software GraphPadPrism to make a line graph of blood glucose changes, and the area under the curve was calculated to obtain an AUC graph, and the results are shown in FIG. 1.

The subject of assay [2] is db/db diabetic mice. Nature of the assay: Dose determination in 8-week-old db/db diabetic mice: blood glucose and body weight. It counts as in vivo. The method, then:
The db/db mice diabetic model (purchased from Nanjing University-Nanjing Institute of Biomedical Research, about 8 weeks, and blood glucose and body weight were measured to ensure the smooth subsequent experiments) was obtained, and the model mice were randomly divided into 12 groups (including polypeptide compounds 3, 8, 13, 15, semaglutide and physiological saline groups), with 6 mice in each group and no difference in basal body weight and blood glucose. Each group was injected subcutaneously with compound 3 (80 and 120 μg/kg, 2 groups), compound 8 (80 and 120 μg/kg, 2 groups), compound 13 (80 and 120 μg/kg, 2 groups), compound 15 (80 and 120 μg/kg, 2 groups), semaglutide (80 and 120 μg/kg, 2 groups) and physiological saline (DN group: normal mice born in the same litter; DC group: db/db mice control group) every day or every other day.
Blood glucose and body weight of mice were measured after daily administration and 6 h fasting on alternate days.

The next assay concerns FN protein (fibronectin). Briefly: Western blot of FN protein in high glucose-induced in vitro renal fibrosis cell model. Format: cell-based, rat. Conditions: 10 μM; 30 mmol/L glucose; 48 h; mesangial and renal epithelial cells. An excerpt:
Hyperglycemia and increased production of glycosylation end products will cause morphological changes such as proliferation and hypertrophy of glomerular mesangial cells, increase in extracellular matrix (ECM) and mesangial expansion, which will eventually lead to the loss of its physiological function. […] Therefore, this example used high glucose to induce MCS mesangial cells and NRK renal epithelial cells to construct an in vitro renal fibrosis cell model for screening medicaments useful for the treatment of diabetic nephropathy. The renal mesangial cell strain GMC and glomerular epithelial cells mTEC used in this example were both cells kept in the applicant's laboratory (both were extracted from rat renal primary cells) and cultured in low sugar medium containing 10% fetal bovine serum. The cells were starved with serum-free culture medium for 24 h when grew to 70% confluence. The cells were divided into the following 9 groups by adjusting the glucose concentration as follows: […]
A general note: A western blot detects proteins with antibodies after separation by electrophoresis.

For Semaglutide [reference compound], the “weekly blood glucose (hypoglycemic effect)” value (“weekly blood glucose” below) with db/db diabetic mice [1] is reported as “significant hypoglycemic effects”. Besides, the “AUC / improvement in glucose tolerance in all four OGTT curves” value in the assay with C57BL/6J mice (four OGTT curve periods (0-22 h), compared to control PBS) is listed as “significantly reduced (P<0.05)”. Besides, in the assay with db/db diabetic mice [2] (FIG. 3A, daily s.c., 120 μg/kg, vs saline DC group), the “blood glucose (glucose-lowering effect)” value is on record as “better hypoglycemic effect, after which it was maintained at a more stable normoglycemic level, but its hypoglycemic effect was not significant”. In addition, the “blood glucose (hypoglycemic effect)” value is given as “the hypoglycemic effect was not significant” with db/db diabetic mice [2] (FIG. 3B, every other day s.c., 80 μg/kg) and “the hypoglycemic effect was not significant” in the assay on db/db diabetic mice [2] (FIG. 3B, every other day s.c., 120 μg/kg). Besides, in the assay with db/db diabetic mice [2] (FIG. 3B, every other day s.c., 120 μg/kg, from day 3 / after days 3-5), the “subsequent blood glucose course (long-lasting effect)” value is “rebounded on day 3, and its long-lasting effect was not enough”.
Turning to “His-(D-Ser)-Gln-Gly-Thr-Phe-Thr-Ser-Asp-Lys(Gly-Gly-Ser-Gly-Ser-Gly-γGlu-CO(CH2)18-COOH)-Ser-Lys-Tyr-Leu-Glu-Aib-Lys-Ala-Ala-Gln-Asp-Phe-Val-Glu-Trp-Leu-Lys-Ala-Gly-Gly-Pro-Ser-Ser-Gly-Ala-Pro-Pro-Pro-Ser-NH2 (HXQGTFTSDKSKYLEXKAAQDFVEWLKAGGPSSGAPPPS; D-Ser, Aib; γGlu-C20 diacid lipidation; C-terminal amide; (2)..(2) X=D-Ser; (10)..(10) A side chain of Lys is linked to -Gly-Gly-Ser-Gly-Ser-Gly-AGlu-CO(CH2)18-COOH; (16)..(16) X=Aib) [Compound 14]”, in the assay with db/db diabetic mice [1], the “weekly blood glucose” value is listed as “significant hypoglycemic effects”; the “improving oral glucose tolerance (OGTT)” value is given as “performed more excellent”; the “improving insulin resistance (ITT)” value is on record as “performed more excellent”; the “ALT and AST in serum (hepatoprotective function)” value was “more excellent hepatoprotective functions”. In the assay on db/db diabetic mice [1], the “H&E staining of kidneys: glomerular adhesion, ameliorative and therapeutic effects” value is on record as “more significant”; the “PAS staining of kidneys: ameliorative effects on glomerular mesangial region” value is “more significant”; the “collagen content (Sirius red, FN and α-SMA staining of kidneys)” value is reported as “improved more significantly”. Also, in the assay with C57BL/6J mice, the “long-acting hypoglycemic effects compared to semaglutide” value is “superior and significant long-acting hypoglycemic effects”. Moreover, in the assay with FN protein (fibronectin), the “FN protein expression (Western blot)” value was “inhibited FN expression more significantly”.
As to “His-Aib-Gln-Gly-Thr-Phe-Thr-Ser-Asp-Lys(Gly-Gly-Ser-Gly-Ser-Gly-γGlu-CO(CH2)18-COOH)-Ser-Lys-Tyr-Leu-Asp-Glu-Arg-Ala-Ala-Gln-Asp-Phe-Iva-Gln-Trp-Leu-Leu-Asp-Gly-Gly-Pro-Ser-Ser-Gly-Aib-Pro-Pro-Pro-Ser-NH2 (HXQGTFTSDKSKYLDERAAQDFXQWLLDGGPSSGXPPPS; Aib, Iva; γGlu-C20 diacid lipidation; C-terminal amide; (2)..(2) X=Aib; (10)..(10) A side chain of Lys is linked to -Gly-Gly-Ser-Gly-Ser-Gly-AGlu-CO(CH2)18-COOH; (23)..(23) X=Isovaline; (35)..(35) X=Aib) [Compound 16]”, in the assay on db/db diabetic mice [1], the “weekly blood glucose” value was “significant hypoglycemic effects”; the “improving oral glucose tolerance (OGTT)” value is on record as “performed more excellent”; the “improving insulin resistance (ITT)” value was “performed more excellent”; the “ALT and AST in serum (hepatoprotective function)” value is recorded as “more excellent hepatoprotective functions”. For the same substance, in the assay on db/db diabetic mice [1], the “H&E staining of kidneys: glomerular adhesion, ameliorative and therapeutic effects” value is “more significant”; the “PAS staining of kidneys: ameliorative effects on glomerular mesangial region” value was “more significant”; the “collagen content (Sirius red, FN and α-SMA staining of kidneys)” value is “improved more significantly”.
“His-(D-Ser)-Gln-Gly-Thr-Phe-Thr-Ser-Asp-Tyr-Ser-Lys-Lys(PEG2-PEG2-γGlu-(CH2)17COOH)-Leu-Asp-Ser-Glu-Arg-Ala-Arg-Asp-Phe-Val-Ala-Trp-Leu-Val-Ala-Gly-Gly-NH2 (H[dS]QGTFTSDYSKKLDSERARDFVAWLVAGG-NH2; not fully specified (residue 13); printed as His-(D-Ser)-Gln-Gly-Thr-Phe-Thr-Ser-Asp-Tyr-Ser-Lys-Lys(PEG2-PEG2-γGlu-(CH2)17COOH)-Leu-Asp-Ser-Glu-Arg-Ala-Arg-Asp-Phe-Val-Ala-Trp-Leu-Val-Ala-Gly-Gly-NH2) [MED C18-acid, compound reported in the prior art, synthesized by the applicant, reference compound]”: in the assay on db/db diabetic mice [1], the “weekly blood glucose” value is listed as “significant hypoglycemic effects”.
Take “His-Aib-Gln-Gly-Thr-Phe-Thr-Ser-Asp-Lys(PEG2-PEG2-γGlu-CO(CH2)18CO2H)-Ser-Lys-Tyr-Leu-Glu-Aib-Lys-Ala-Ala-Gln-Asp-Phe-Val-Glu-Trp-Leu-Lys-Ala-Gly-Gly-Pro-Ser-Ser-Gly-Ala-Pro-Pro-Pro-Ser-NH2 (H[Aib]QGTFTSDK([PEG2′-PEG2′-γGlu-C20 diacid])SKYLE[Aib]KAAQDFVEWLKAGGPSSGAPPPS-NH2) [Compound 1]”: the “long-acting hypoglycemic effects compared to semaglutide” value in the assay with C57BL/6J mice was “superior and significant long-acting hypoglycemic effects”.
Regarding “His-(D-Ser)-Gln-Gly-Thr-Phe-Thr-Ser-Asp-Leu-Ser-Lys-Gln-Lys(CO(CH2)14CH3)-Glu-Ser-Lys-Ala-Ala-Gln-Asp-Phe-Ile-Glu-Trp-Leu-Lys-Ala-Gly-Gly-Pro-Ser-Ser-Gly-Ala-Pro-Pro-Pro-Ser-NH2 (HXQGTFTSDLSKQKESKAAQDFIEWLKAGGPSSGAPPPS; D-Ser; palmitoyl lysine; C-terminal amide; SAR425899; (2)..(2) X=D-Ser; (14)..(14) A side chain of Lys is linked to -CO(CH2)14CH3) [compound reported in the prior art, synthesized by the applicant, reference compound]”, the “weekly blood glucose” value with db/db diabetic mice [1] is reported as “significant hypoglycemic effects”.
“His-(D-Ser)-Gln-Gly-Thr-Phe-Thr-Ser-Asp-Lys(PEG2-PEG2-CO(CH2)18CO2H)-Ser-Lys-Tyr-Leu-Glu-Aib-Lys-Ala-Ala-Gln-Asp-Phe-Val-Glu-Trp-Leu-Lys-Ala-Gly-Gly-Pro-Ser-Ser-Gly-Ala-Pro-Pro-Pro-Ser-NH2 (H[dS]QGTFTSDK([PEG2′-PEG2′-C20 diacid])SKYLE[Aib]KAAQDFVEWLKAGGPSSGAPPPS-NH2) [Compound 2]”: the “long-acting hypoglycemic effects compared to semaglutide” value in the assay on C57BL/6J mice is “superior and significant long-acting hypoglycemic effects”.
